The assay relates to P388 leukemia ip, CD2F1 mice, survival T/C. The assay is described as follows: NCI In Vivo Anticancer Drug Screen. Data for tumor model P388 Leukemia (intraperitoneal) in CD2F1 (CDF1) mice. The settings on record: endpoint: median survival time, higher = longer survival. In a few lines:
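Mice carrying the transplanted tumor received test compound or vehicle. Survival was recorded in each group, and the value is the treated-group measurement divided by that of the vehicle-treated control group.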

Setting [1] is: dose: 60.0 mg/kg/injection, schedule: Q01DX005 (ip), vehicle: Klucel (hydroxypropylcellulose) (HPC).
[2] abbreviates: dose: 120.0 mg/kg/injection, schedule: Q01DX005 (ip), vehicle: Klucel (hydroxypropylcellulose) (HPC).
[3] abbreviates: dose: 240.0 mg/kg/injection, schedule: Q01DX005 (ip), vehicle: Klucel (hydroxypropylcellulose) (HPC).
The mark [4] stands for this setting: dose: 100.0 mg/kg/injection, schedule: Q01DX009 (ip), vehicle: saline.
Setting [5] is: dose: 50.0 mg/kg/injection, schedule: Q01DX005 (ip), vehicle: Klucel (hydroxypropylcellulose) (HPC).
[6] abbreviates: dose: 100.0 mg/kg/injection, schedule: Q01DX005 (ip), vehicle: Klucel (hydroxypropylcellulose) (HPC).
Setting [7] is: dose: 200.0 mg/kg/injection, schedule: Q01DX005 (ip), vehicle: Klucel (hydroxypropylcellulose) (HPC).
[8] abbreviates: dose: 60.0 mg/kg/injection, schedule: Q01DX005 (ip), vehicle: saline with Tween-80.
Setting [9] is: dose: 120.0 mg/kg/injection, schedule: Q01DX005 (ip), vehicle: saline with Tween-80.

Values joined by “and” are separate entries in the source; they are usually repeats but may differ in a detail not shown here. Equal values may be shown once. Inconclusive results and toxic doses are left out.

Turning to `c1ccc2c(c1)[nH]c1c3ccccc3sc21`, the T/C by setting is: under setting [1], 106 % of control; under setting [2], 107 % of control; under setting [3], 105 % of control.

Regarding `CC(=O)Nc1nnc(SSc2nnc(NC(C)=O)s2)s1`, the T/C is, setting by setting: (dose: 50.0 mg/kg/injection, schedule: Q01DX009 (ip), vehicle: Klucel (hydroxypropylcellulose) (HPC)) 90 % of control; (dose: 100.0 mg/kg/injection, schedule: Q01DX009 (ip), vehicle: Klucel (hydroxypropylcellulose) (HPC)) 102 % of control; (dose: 200.0 mg/kg/injection, schedule: Q01DX009 (ip), vehicle: Klucel (hydroxypropylcellulose) (HPC)) 94 % of control.

As to `O=C(CNOCc1ccccc1)OCc1ccccc1`, the T/C is 88 % of control (dose: 12.5 mg/kg/injection, schedule: Q01DX009 (ip), vehicle: other); 96 % of control (dose: 25.0 mg/kg/injection, schedule: Q01DX009 (ip), vehicle: other); 99 % of control (dose: 50.0 mg/kg/injection, schedule: Q01DX009 (ip), vehicle: other); 97 % of control (dose: 100.0 mg/kg/injection, schedule: Q01DX009 (ip), vehicle: other); 108 % of control (dose: 200.0 mg/kg/injection, schedule: Q01DX009 (ip), vehicle: other).

Regarding `CC(=O)N1N=C(c2ccc(OCC(O)CN3CCN(CC(O)COc4ccc(C5=NN(C(C)=O)C(c6ccccc6)C5)cc4)CC3)cc2)CC1c1ccccc1` (stereo unspecified), the T/C by setting is: (dose: 50.0 mg/kg/injection, schedule: Q01DX005 (ip), vehicle: saline with Tween-80) 100 % of control; (dose: 100.0 mg/kg/injection, schedule: Q01DX005 (ip), vehicle: saline with Tween-80) 86 % of control.

On to `CS(=O)CC(C)(O)C1OC(=O)C=C2C3(C)CC4OC4C4(C)C(=O)OC(C34)C3OC231` (stereo unspecified), for which the T/C reads like this: (dose: 2.5 mg/kg/injection, schedule: Q01DX009 (ip), vehicle: DMSO) 108 % of control; (dose: 20.0 mg/kg/injection, schedule: Q01DX009 (ip), vehicle: DMSO) 151 % of control.

For `CN(C)C(=O)NCCCCCCNC(=O)N(C)C`, the T/C by setting is: (dose: 50.0 mg/kg/injection, schedule: Q01DX009 (ip), vehicle: saline) 105 % of control; under setting [4], 100 % of control; (dose: 200.0 mg/kg/injection, schedule: Q01DX009 (ip), vehicle: saline) 110 % of control.

On to `c1c2noc1CCCCCCCCC2`, for which the T/C reads like this: under setting [5], 104 % of control; under setting [6], 110 % of control; under setting [7], 118 % of control.

With `O=[N+]([O-])c1ccc(/C=C/C=C\c2ccc(S(=O)(=O)F)cc2Cl)cc1`, the T/C is 94 % of control under setting [8]; 96 % of control under setting [9]; 95 % of control (dose: 240.0 mg/kg/injection, schedule: Q01DX005 (ip), vehicle: saline with Tween-80).

As to `C/C(CCn1[nH]c(=O)ccc1=O)=N\NS(=O)(=O)c1ccc(C)cc1`, the T/C under setting [8] is 103 % of control; the T/C under setting [9] was 109 % of control; the T/C (dose: 134.0 mg/kg/injection, schedule: Q01DX005 (ip), vehicle: saline with Tween-80) was 105 % of control.

Take `CCN(CC)CCOC(=O)c1ccc(N=NC2Sc3nc4ccccc4n3C2=O)cc1` (stereo unspecified): the T/C is, setting by setting: (dose: 7.5 mg/kg/injection, schedule: Q01DX005 (ip), vehicle: Klucel (hydroxypropylcellulose) (HPC)) 92 % of control; (dose: 15.0 mg/kg/injection, schedule: Q01DX005 (ip), vehicle: Klucel (hydroxypropylcellulose) (HPC)) 96 % of control; (dose: 30.0 mg/kg/injection, schedule: Q01DX005 (ip), vehicle: Klucel (hydroxypropylcellulose) (HPC)) 96 % of control.

For the molecule `COC(=O)NN(C(=O)OC)C1CCCC2C1c1ccc3ccccc3c1N(C(=O)OC)N2C(=O)OC` (stereo unspecified), the T/C is, setting by setting: under setting [1], 107 % of control; under setting [2], 100 % of control; under setting [3], 109 % of control.

On to `CCOC(=O)Cc1ccc(-c2csc(Nc3ccc(Cl)cc3)n2)cc1`, for which the T/C by setting is: (dose: 100.0 mg/kg/injection, schedule: Q04DX003 (ip), vehicle: Klucel (hydroxypropylcellulose) (HPC)) 96 % of control; (dose: 200.0 mg/kg/injection, schedule: Q04DX003 (ip), vehicle: Klucel (hydroxypropylcellulose) (HPC)) 104 % of control; (dose: 400.0 mg/kg/injection, schedule: Q04DX003 (ip), vehicle: Klucel (hydroxypropylcellulose) (HPC)) 106 % of control.

`COc1cccc(-c2nc(SC)nc(Cl)c2C#N)c1`: the T/C is 96 % of control (dose: 15.0 mg/kg/injection, schedule: Q01DX005 (ip), vehicle: saline with Tween-80); 86 % of control (dose: 30.0 mg/kg/injection, schedule: Q01DX005 (ip), vehicle: saline with Tween-80); 108 % of control and 93 % of control under setting [8]; 113 % of control under setting [9].

With `Clc1ccc(-c2n[nH]c3c2Cc2ccccc2-3)cc1Cl`, the T/C is 97 % of control under setting [5], 91 % of control under setting [6] and 98 % of control under setting [7].

For the molecule `CC1C2Cc3ccc(O)cc3C1(C)CCN2CCC(=O)c1ccccc1` (stereo unspecified), the T/C under setting [5] is 92 % of control, the T/C under setting [6] is 88 % of control and the T/C under setting [7] is 88 % of control.

As for `CCCCN1C(=O)/C(=C/c2ccccc2OC)SC1=S`, the T/C is, setting by setting: under setting [5], 98 % of control; under setting [6], 94 % of control.

As for `CC(C)P(C(C)C)C(C)C`, the T/C (dose: 100.0 mg/kg/injection, schedule: Q01DX001 (ip), vehicle: saline with Tween-80) is 104 % of control; the T/C (dose: 200.0 mg/kg/injection, schedule: Q01DX001 (ip), vehicle: saline with Tween-80) is 104 % of control; the T/C (dose: 400.0 mg/kg/injection, schedule: Q01DX001 (ip), vehicle: saline with Tween-80) is 95 % of control.

As for `c1ccc(-c2c(-c3ccccc3)[c+]2-c2ccccc2)cc1`, the T/C by setting is: (dose: 100.0 mg/kg/injection, schedule: Q01DX001 (ip), vehicle: gum acacia) 99 % of control; (dose: 200.0 mg/kg/injection, schedule: Q01DX001 (ip), vehicle: gum acacia) 99 % of control.

In the case of `COc1cc2c3cc1Oc1c(O)c(OC)cc4c1[C@H](Cc1ccc(cc1)Oc1cc(ccc1O)C[C@H]3N(C)CC2)N(C)CC4`, the T/C (dose: 1.25 mg/kg/injection, schedule: Q01DX009 (ip), vehicle: water) is 100 % of control; the T/C (dose: 2.5 mg/kg/injection, schedule: Q01DX009 (ip), vehicle: water) was 101 % of control; the T/C (dose: 5.0 mg/kg/injection, schedule: Q01DX009 (ip), vehicle: water) was 97 % of control; the T/C (dose: 10.0 mg/kg/injection, schedule: Q01DX009 (ip), vehicle: water) is 101 % of control; the T/C (dose: 20.0 mg/kg/injection, schedule: Q01DX009 (ip), vehicle: other) was 103 % of control; the T/C (dose: 20.0 mg/kg/injection, schedule: Q01DX009 (ip), vehicle: water) was 94 % of control. The T/C (dose: 40.0 mg/kg/injection, schedule: Q01DX009 (ip), vehicle: other) is 94 % of control and the T/C (dose: 80.0 mg/kg/injection, schedule: Q01DX009 (ip), vehicle: other) is 109 % of control.

In the case of `CCOC(=NC#N)NOC`, the T/C under setting [1] was 93 % of control, the T/C under setting [2] is 98 % of control and the T/C under setting [3] is 102 % of control.

For `C=CCN=C(NC(C)(C)C)c1ccccc1`, the T/C was 107 % of control under setting [5] and 96 % of control under setting [6].

Turning to `CCOC(=O)CN=C(c1ccccc1)c1ccccc1`, the T/C runs as follows: (dose: 6.25 mg/kg/injection, schedule: Q01DX009 (ip), vehicle: saline) 105 % of control; (dose: 12.5 mg/kg/injection, schedule: Q01DX009 (ip), vehicle: saline) 105 % of control; (dose: 25.0 mg/kg/injection, schedule: Q01DX009 (ip), vehicle: saline) 105 % of control; under setting [4], 89 % of control.

Regarding `CCCCCCC(=O)/C=C/c1cccc(OCc2ccc(Cl)c(Cl)c2)c1`, the T/C is 115 % of control (dose: 50.0 mg/kg/injection, schedule: Q01DX009 (ip), vehicle: saline with Tween-80); 90 % of control (dose: 100.0 mg/kg/injection, schedule: Q01DX009 (ip), vehicle: saline with Tween-80); 97 % of control (dose: 200.0 mg/kg/injection, schedule: Q01DX009 (ip), vehicle: saline with Tween-80).

As for `O=C1C=CC(=Nc2cc(Br)c(O)c(Br)c2)C=C1`, the T/C is, setting by setting: (dose: 12.5 mg/kg/injection, schedule: Q01DX005 (ip), vehicle: saline) 103 % of control; (dose: 25.0 mg/kg/injection, schedule: Q01DX005 (ip), vehicle: saline) 99 % of control; (dose: 50.0 mg/kg/injection, schedule: Q01DX005 (ip), vehicle: saline) 89 % of control and 95 % of control.
